Test results: patent US20250163074A1, “CDK Inhibitors And Their Use As Pharmaceuticals” (Prelude Therapeutics Incorporated, priority 2020, published 2025)
pIC50: −log10 of the molar value. Read-outs that look alike come from different tables or passages of the source.

Tests used:
[1] = target: CDK4/Cyclin D1 (Homo sapiens (Human), UniProt P11802); assay: CDK4/CyclinD1 enzymatic activity assay (TR-FRET); assay type: biochemical; settings: CDK4/CyclinD1 1 nM, ATP 2 mM, read-out: CDK4_D1 IC50
Protocol: CDK4/CyclinD1 Enzymatic Activity Assay
The inhibitory activity of compounds was evaluated in vitro using TR-FRET assay with white 384-well low volume microplate (Greiner Bio-One). CDK4/Cyclin D1 catalyzed phosphorylation of peptide in the presence and absence of compounds was measured. IC50 determination. Recombinant protein complex CDK4/Cyclin D1, expressed from insect cell, was purchased from ProQinase. Testing compounds were dissolved in DMSO at 0.1 mM and tested in 9-dose IC50 mode. The reaction mixture was prepared by mixing CDK4/CyclinD1 (1 nM final), ULight-4E-BP1 (100 nM final, Perkinelmer, TRF0128-D), and ATP (2 mM final) in assay buffer (20 mM of HEPES pH 7.4, 1 mM of EGTA, 0.05% BSA, 0.005% Tween 20, and 1 mM TCEP). The compound of interest in DMSO was added to each well in 3-fold serial dilution by dispenser (TECAN D300E). After 20 minutes preincubation at room temperature, MgCl2 (10 mM final) was added to initiate the reaction. Following a 60 minutes incubation at 37° C., the reaction was stopped by addition of 2 μL of quenching buffer consisting of Lance detection buffer (Perkinelmer CR97-100C), 2 nM LANCE Ultra Europium-anti-P-4E-BP1 (Perkinelmer, TRF0216-D), 10 mM EDTA, and incubate at room temperature for additional 60 minutes in dark. The reaction signal was measured by Envision multimode plate reader (PerkinElmer, 2102-0010). IC50 values were determined by fitting the data to the standard 4 parameters with Hill Slope using GraphPad Prism software.

[2] = system: MCF7 adenocarcinoma cell line; assay: Cell proliferation studies in MCF7 cells (ATP-Lite); assay type: cell-based; settings: 10 days incubation, cell viability by ATP-Lite luminescence, read-out: PROLIFERATION_CTG_MCF7 IC50
Protocol: Cell Proliferation Studies in MCF7 Cells
Cell proliferation studies were conducted in MCF7 adenocarcinoma cell line. Cells were maintained in DMEM (Corning, Catalog #: 10-013-CV) supplemented with 10% v/v FBS (Gibco, Catalog #: 26140-079), 1% v/v Penicillin Streptomycin (Gibco, Catalog #15140-122) Cells were seeded in 384-well plates at a density of 100 or 200 cells/well. Compounds dissolved in DMSO were plated in quadruplicate using a digital dispenser (D300E, Tecan) and tested on a 9-point 3-fold serial dilution. Cells were incubated for 10 days in a 37° C. active humidified incubator at 5% CO2. A media exchange and second compound addition were performed on day 5. Cell viability was measured using the ATP-Lite 1-Step Luminescence reagent (Perkin Elmer, Catalog #: 6016731) as per manufacturer's instructions. Luminescence signal was measured with a multimode plate reader (Envision 2105, Perkin Elmer). Raw data files were imported to Dotmatics Screening Ultra for IC50 analysis. Luminescence values were normalized to both background and DMSO controls to obtain a percentage of viable cells relative to DMSO vehicle control.

Sequence of CDK4/Cyclin D1 (P11802 whole entry): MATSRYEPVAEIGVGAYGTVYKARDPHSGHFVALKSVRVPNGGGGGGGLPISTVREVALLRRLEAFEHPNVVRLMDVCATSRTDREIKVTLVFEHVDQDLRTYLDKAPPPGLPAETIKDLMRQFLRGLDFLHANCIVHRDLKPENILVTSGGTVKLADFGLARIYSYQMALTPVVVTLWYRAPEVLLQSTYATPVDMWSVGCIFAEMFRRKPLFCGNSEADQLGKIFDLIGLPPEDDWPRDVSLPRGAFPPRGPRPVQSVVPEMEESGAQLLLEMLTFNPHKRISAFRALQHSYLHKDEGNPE
Sequence of CDK4/Cyclin D1 (P24385 whole entry partner): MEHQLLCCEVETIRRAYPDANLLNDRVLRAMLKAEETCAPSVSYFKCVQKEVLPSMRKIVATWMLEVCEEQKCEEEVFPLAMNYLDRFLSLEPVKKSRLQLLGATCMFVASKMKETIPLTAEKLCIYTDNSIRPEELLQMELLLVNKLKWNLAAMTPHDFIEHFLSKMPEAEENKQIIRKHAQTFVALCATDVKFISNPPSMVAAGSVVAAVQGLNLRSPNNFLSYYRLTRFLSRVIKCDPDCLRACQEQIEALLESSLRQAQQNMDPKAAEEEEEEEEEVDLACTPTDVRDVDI

Row | Compound | pIC50 [1] | pIC50 ([2]; Homo sapiens, 240 h) | pIC50 [2]
1 | CCN1C(=O)c2c(sc(-c3nc(Nc4ccc(C5CCN(C)CC5)cn4)ncc3Cl)c2C)C12CC2 [Example 11, 2′-(5-Chloro-2-((5-(1-methyl-piperidin-4-yl)pyridin-2-yl)amino)pyrimidin-4-yl)-5′-ethyl-3′-methylspiro[cyclopropane-1,6′-thieno[2,3-c]pyrrol]-4′(5′H)-one] | ≥ 7.70 | 6.70 to 7.70 | –
2 | CCN1C(=O)c2cc(-c3nc(Nc4ccc(N5C[C@H]6CN(C)C[C@H]6C5)cn4)ncc3C)sc2C12CC2 [Example 17] | ≥ 7.70 | – | 6.70 to 7.70
3 | CCN1C(=O)c2cc(-c3nc(Nc4ccc(C5CCN(C)CC5)cn4)ncc3C)sc2C12CC2 [Example 19, 5′-Ethyl-2′-[5-methyl-2-[[5-(1-methylpiperidin-4-yl)pyridin-2-yl]amino]pyrimidin-4-yl]spiro[cyclopropane-1,6′-thieno[2,3-c]pyrrole]-4′-one] | ≥ 7.70 | 6.70 to 7.70 | –
4 | CCN1CCC(c2ccc(Nc3ncc(F)c(-c4cc5c(s4)C4(CC4)CN(C)C5=O)n3)nc2)C1 (stereo not drawn) [Example 31, 2′-(2-((5-(1-Ethylpyrrolidin-3-yl)pyridin-2-yl)amino)-5-fluoropyrimidin-4-yl)-5′-methyl-5′,6′-dihydro-4′H-spiro[cyclo-propane-1,7′-thieno[3,2-c]pyridin]-4′-one] | ≥ 7.70 | 5.70 to 6.70 | –
5 | Cc1c(-c2nc(Nc3ccc(N4CC5CC(C4)N5C)cn3)ncc2F)sc2c1C(=O)N(C)CC21CC1 [Example 33, 2′-(5-Fluoro-2-((5-(6-methyl-3,6-diazabicyclo[3.1.1]heptan-3-yl)pyridin-2-yl)amino)pyrimidin-4-yl)-3′,5′-dimethyl-5′,6′-dihydro-4′H-spiro[cyclopropane-1,7′-thieno[3,2-c]pyridin]-4′-one] | ≥ 7.70 | 6.70 to 7.70 | –
6 | CCN1CCN(Cc2ccc(Nc3ncc(F)c(-c4sc5c(c4C)C(=O)N(C)CC54CC4)n3)nc2)CC1 [Example 38, 2′-(2-((5-((4-Ethylpiperazin-1-yl)methyl)pyridin-2-yl)amino)-5-fluoropyrimidin-4-yl)-3′,5′-dimethyl-5′,6′-dihydro-4′H-spiro[cyclopropane-1,7′-thieno[3,2-c]pyridin]-4′-one] | ≥ 7.70 | 5.70 to 6.70 | –
7 | CCN1CC2(C1)CN(c1ccc(Nc3ncc(C)c(-c4sc5c(c4C)C(=O)N(C)CC54CC4)n3)nc1)C2 [Example 42, 2-[2-[[5-(6-Ethyl-2,6-diazaspiro[3.3]heptan-2-yl)pyridin-2-yl]amino]-5-methylpyrimidin-4-yl]-3,5-dimethylspiro[6H-thieno[3,2-c]pyridine-7,1′-cyclopropane]-4-one] | ≥ 7.70 | 6.70 to 7.70 | –
8 | CCN1CC2(C1)CN(c1ccc(Nc3ncc(Cl)c(-c4sc5c(c4C)C(=O)N(C)CC54CC4)n3)nc1)C2 [Example 44] | ≥ 7.70 | – | 6.70 to 7.70
9 | CN1CC2(CCC2)c2sc(-c3nc(Nc4ccc(C5CCN(CC(F)F)CC5)cn4)ncc3F)cc2C1=O [Example 49, 2′-(2-((5-(1-(2,2-Difluoroethyl)piperidin-4-yl)pyridin-2-yl)amino)-5-fluoropyrimidin-4-yl)-5′-methyl-5′,6′-dihydro-4′H-spiro[cyclobutane-1,7′-thieno[3,2-c]pyridin]-4′-one] | ≥ 7.70 | – | –
10 | CCN1CCC12CN(c1ccc(Nc3ncc(F)c(-c4cc5c(s4)C4(CCC4)CN(C)C5=O)n3)nc1)C2 [Example 51, 2′-(2-((5-(1-Ethyl-1,6-diazaspiro[3.3]heptan-6-yl)pyridin-2-yl)amino)-5-fluoropyrimidin-4-yl)-5′-methyl-5′,6′-dihydro-4′H-spiro[cyclobutane-1,7′-thieno[3,2-c]pyridin]-4′-one] | ≥ 7.70 | 6.70 to 7.70 | –
11 | CCN1CCN(Cc2ccc(Nc3ncc(F)c(-c4sc5c(c4C)C(=O)N(C)CC54CCC4)n3)nc2)CC1 [Example 56, 2′-(2-((5-((4-Ethylpiperazin-1-yl)methyl)pyridin-2-yl)amino)-5-fluoropyrimidin-4-yl)-3′,5′-dimethyl-5′,6′-dihydro-4′H-spiro[cyclobutane-1,7′-thieno[3,2-c]pyridin]-4′-one] | ≥ 7.70 | – | –
12 | CN1CCN(c2ccc(Nc3ncc(F)c(-c4cc5c(s4)C4(CCCC4)CN(C)C5=O)n3)nc2)C(C(F)(F)F)C1 (stereo not drawn) [Example 65, 2-[5-Fluoro-2-[[5-[4-methyl-2-(trifluoromethyl)piperazin-1-yl]pyridin-2-yl]amino]pyrimidin-4-yl]-5-methylspiro[6H-thieno[3,2-c]pyridine-7,1′-cyclopentane]-4-one] | ≥ 7.70 | – | –
13 | CCN1CCN(Cc2ccc(Nc3ncc(F)c(-c4ccc5c(c4)C4(CCCC4)CN(C)C5=O)n3)nc2)CC1 [Example 68, 6′-(2-((5-((4-Ethylpiperazin-1-yl)methyl)pyridin-2-yl)amino)-5-fluoropyrimidin-4-yl)-2′-methyl-2′,3′-dihydro-1′H-spiro [cyclo-pentane-1,4′-isoquinolin]-1′-one] | ≥ 7.70 | – | –
14 | CCN1CC2(C1)CN(c1ccc(Nc3ncc(F)c(-c4ccc5c(c4)C4(CCC4)CN(C)C5=O)n3)nc1)C2 [Example 69, 6′-(2-((5-(6-Ethyl-2,6-diazaspiro[3.3]heptan-2-yl)pyridin-2-yl)amino)-5-fluoropyrimidin-4-yl)-2′-methyl-2′,3′-dihydro-1′H-spiro[cyclobutane-1,4′-isoquinolin]-1′-one] | 6.70 to 7.70 | – | –
15 | C/C=C/CN1CCC(c2ccc(Nc3ncc(F)c(-c4sc5c(c4C)C(=O)N(C)C54CC4)n3)nc2)C1 (stereo not drawn) [Example 72, (E)-2′-(2-((5-(1-(But-2-en-1-yl)pyrrolidin-3-yl)pyridin-2-yl)amino)-5-fluoropyrimidin-4-yl)-3′,5′-dimethylspiro[cyclopropane-1,6′-thieno[2,3-c]pyrrol]-4′(5′H)-one] | ≥ 7.70 | – | –
16 | CCN1CC2(C1)CN(c1ccc(Nc3ncc(F)c(-c4cc5c(s4)C4(CCCCC4)CN(CC)C5=O)n3)nc1)C2 [Example 75, 5′-Ethyl-2′-(2-((5-(6-ethyl-2,6-diazaspiro[3.3]heptan-2-yl)pyridin-2-yl)amino)-5-fluoropyrimidin-4-yl)-5′,6′-dihydro-4′H-spiro[cyclohexane-1,7′-thieno[3,2-c]pyridin]-4′-one] | 6.70 to 7.70 | – | –
17 | CCN1CC2(C1)CN(c1ccc(Nc3ncc(F)c(-c4cc5c(s4)C4(CN(C)C5=O)CC5(CC5)C4)n3)nc1)C2 [Example 76, 2″-(2-((5-(6-Ethyl-2,6-diazaspiro[3.3]heptan-2-yl)pyridin-2-yl)amino)-5-fluoropyrimidin-4-yl)-5″-methyl-5″,6″-dihydro-4″H-dispiro[cyclopropane-1,1′-cyclobutane-3′,7″-thieno[3,2-c]pyridin]-4″-one] | ≥ 7.70 | – | –
18 | CN1CCC(c2ccc(Nc3ncc(F)c(-c4ccc5c(c4)C4(CCCC4)N(C)C5=O)n3)nc2)CC1 [Example 79, 6′-(5-Fluoro-2-((5-(1-methylpiperidin-4-yl)pyridin-2-yl)amino)pyrimidin-4-yl)-2′-methylspiro[cyclopentane-1,1′-isoindolin]-3′-one] | 6.70 to 7.70 | – | –
19 | CN1CCC(c2ccc(Nc3ncc(F)c(-c4cc5c(s4)C4(CN(C)C5=O)CC(F)(F)C4)n3)nc2)CC1 [Example 84, 3,3-Difluoro-2′-(5-fluoro-2-((5-(1-methylpiperidin-4-yl)pyridin-2-yl)amino)pyrimidin-4-yl)-5′-methyl-5′,6′-dihydro-4′H-spiro[cyclobutane-1,7′-thieno[3,2-c]pyridin]-4′-one] | 6.70 to 7.70 | – | –
20 | CCN1CC2(C1)CN(c1ccc(Nc3ncc(F)c(-c4cc5c(s4)C4(CN(C)C5=O)CC(F)(F)C4)n3)nc1)C2 [Example 85, 2′-(2-((5-(6-Ethyl-2,6-diazaspiro[3.3]heptan-2-yl)pyridin-2-yl)amino)-5-fluoropyrimidin-4-yl)-3,3-difluoro-5′-methyl-5′,6′-dihydro-4′H-spiro[cyclobutane-1,7′-thieno[3,2-c]pyridin]-4′-one] | 6.70 to 7.70 | – | –
21 | CN1CCC(c2ccc(Nc3ncc(F)c(-c4cc5c(s4)C4(CCCC4)CN(C)C5=O)n3)nn2)CC1 [Example 87, 2-[5-Fluoro-2-[[6-(1-methylpiperidin-4-yl)pyridazin-3-yl]amino]pyrimidin-4-yl]-5-methylspiro[6H-thieno[3,2-c]pyridine-7,1′-cyclopentane]-4-one] | 6.70 to 7.70 | – | –
